Assay results from patent publication US6051570A, “Benzimidazole derivatives as antiulcer agents, process for their preparation and pharmaceutical compositions containing them” (Dr. Reddy's Research Foundation, priority 1998, dated 2000).
Counter-ions that a name gives are not always drawn.

How the values were obtained:
H^+ /K^+ - ATPase = target: T1, H^+ /K^+ - ATPase (Oryctolagus cuniculus, UniProt P27112); test: H+/K+-ATPase inhibition (rabbit gastric mucosa enzyme, Pi liberated by ATP hydrolysis); type: biochemical; details: pH 6.5, 37° C., 15 min
T1 construct: Rabbit gastric mucosa containing H^+ /K^+ - ATPase activity is isolated; from tissue; host or cells: rabbit gastric fundic mucosa, membrane fraction (sucrose-step ultracentrifugation pellet)
Excerpt: A) H^+ /K^+ - ATPase inhibition
The most efficient method for reducing acid-related gastrointestinal disorder is through the inhibition of proton pump on the gastric parietal cell. The proton pump (H^+ /K^+ ATPase) is a membrane bound enzyme that exchanges protons for K^+ ions across the apical surface. Associated with this is a K^+ /Cl^- cotransporter which recycles the K^+ together with the Cl^- across the apical surface where HCl is formed by the Cl^- ions together with the secreted H^+. This enzyme has an ATP hydrolyzing activity which requires intravesicular K^+.
Principle [formula] Pi liberated is estimated, the amount of Pi liberated is proportional to the enzyme activity.
(i) Preparation of H^+ /K^+ - ATPase […]
Assay is carried out according to the protocol described by Beil, R (Beil, R. Br. J. Pharmacol, 1984, 82:651). […] After incubation for 15 min. at 37° C., the reaction is stopped by adding equal volume of phosphate reagent and the Pi produced by the hydrolysis of ATP is determined by the method of Lin et al. (Lin T -I. & Morales, M. F. Anal. Biochem. 1977, 77:10). The H^+ /K^+ - ATPase activity is calculated by subtracting the basal activity (in absence of KCl) from the rate of hydrolysis of ATP in the presence of K^+. The percent inhibition were determined for the test compounds.

gastric acid secretion = test: Gastric acid antisecretory activity in pylorus ligated rat model (intraduodenal); type: in vivo, Male wistar rats; details: for ED50: pylorus ligated rat, read-out: ED50 value (in vivo experiment, gastric acid secretion); for ED50 / inhibition in vivo at 10 mg/kg: intraduodenal, 2 h; for inhibition in vivo at 10 mg/kg: Rattus norvegicus
Procedure: B) Gastric acid antisecretory activity The inhibitory effect on gastric acid secretion is determined in pylorus ligated rat model according to Shay et al. ([…]., Gruenstein, H. & Siplet, H. Gastroenterology 1945, 5:43). Male wistar rats weighing about 150-200 g fasted for 24 h with ad libitum are used. Under ether anaesthesia the laparotomy is performed and pylorus portion of the stomach is isolated and ligated with surgical suture. The test drug/vehicle is administered intraduodenally and the abdominal incision is closed using Michael clips. After 2 h, the animals were sacrificed with excess ether anaesthesia and stomach is removed. The gastric contents are collected and centrifuged at 10,000 rpm for 10 min. The volume of the gastric juice is measured and acid concentration is estimated by titrating an aliquot of the gastric juice against 0.004N NaOH using phenolphthalein as the indicator. Total acid output is expressed as milliequivalents/L/kg/h and volume of gastric juice as mL/kg/h. The ED50 value for the test compound is calculated according to graphical method. Omeprazole is used as a standard compound.

T1 sequence (P27112 2-1035 limits assumed): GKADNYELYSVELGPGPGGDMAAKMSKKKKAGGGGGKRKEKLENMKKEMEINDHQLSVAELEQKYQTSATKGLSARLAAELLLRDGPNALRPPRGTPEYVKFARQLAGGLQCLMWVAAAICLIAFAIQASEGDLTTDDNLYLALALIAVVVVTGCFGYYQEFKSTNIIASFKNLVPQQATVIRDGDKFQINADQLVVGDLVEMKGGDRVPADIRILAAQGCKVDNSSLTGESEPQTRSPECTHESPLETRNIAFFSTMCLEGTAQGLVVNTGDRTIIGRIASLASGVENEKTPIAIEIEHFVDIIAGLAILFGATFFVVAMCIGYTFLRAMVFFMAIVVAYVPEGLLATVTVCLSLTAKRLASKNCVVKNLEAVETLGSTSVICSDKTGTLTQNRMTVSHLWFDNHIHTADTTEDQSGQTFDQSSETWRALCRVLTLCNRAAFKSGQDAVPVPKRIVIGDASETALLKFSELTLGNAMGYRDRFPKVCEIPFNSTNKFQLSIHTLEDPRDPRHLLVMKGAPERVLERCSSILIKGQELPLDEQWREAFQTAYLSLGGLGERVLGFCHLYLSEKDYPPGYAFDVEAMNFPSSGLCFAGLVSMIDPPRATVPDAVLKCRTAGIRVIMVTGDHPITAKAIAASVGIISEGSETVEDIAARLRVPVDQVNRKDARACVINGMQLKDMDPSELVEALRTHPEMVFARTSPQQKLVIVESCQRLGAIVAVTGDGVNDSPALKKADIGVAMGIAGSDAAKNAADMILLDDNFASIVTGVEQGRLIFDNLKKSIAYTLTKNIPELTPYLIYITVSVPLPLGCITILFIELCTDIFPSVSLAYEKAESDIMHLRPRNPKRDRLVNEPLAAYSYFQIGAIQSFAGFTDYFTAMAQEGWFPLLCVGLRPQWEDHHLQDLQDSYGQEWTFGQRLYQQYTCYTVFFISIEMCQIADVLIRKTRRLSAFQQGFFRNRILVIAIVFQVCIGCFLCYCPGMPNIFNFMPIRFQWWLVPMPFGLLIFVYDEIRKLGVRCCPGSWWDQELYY
T1 sequence (P18597 whole entry partner): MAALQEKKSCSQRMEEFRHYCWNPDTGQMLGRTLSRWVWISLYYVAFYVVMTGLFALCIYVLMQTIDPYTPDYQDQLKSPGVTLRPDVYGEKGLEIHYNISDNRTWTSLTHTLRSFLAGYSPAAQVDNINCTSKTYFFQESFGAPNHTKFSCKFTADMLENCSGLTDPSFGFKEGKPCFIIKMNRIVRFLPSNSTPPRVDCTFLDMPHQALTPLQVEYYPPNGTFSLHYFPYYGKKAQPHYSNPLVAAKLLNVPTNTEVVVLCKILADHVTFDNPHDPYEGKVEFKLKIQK

Structure (SMILES) | inhibition in vivo at 10 mg/kg (gastric acid secretion) [%] | further results
COc1ccnc(C[S+]([O-])c2nc3cc(N4CCOCC4)c(F)cc3[nH]2)c1C (stereo not shown) [Example 57, 2-[[(4-Methoxy-3-methyl)pyridin-2-yl]methylsulfinyl]-6-fluoro-5-(morpholin-1-yl)-1H-benzimidazole] |  | IC50 (H^+ /K^+ - ATPase): 2.6 µM; ED50 (gastric acid secretion): 3 ± 0.2 mg/kg
COc1ccnc(C[S+]([O-])c2nc3cc(N4CCCCC4)c(F)cc3[nH]2)c1C (stereo not shown) [Example 67, 2-[[(4-Methoxy-3-methyl)pyridin-2-yl]methylsulfinyl]-6-fluoro-5-(piperidin-1-yl)-1H-benzimidazole] | 100 | 
COc1ccnc(C[S+]([O-])c2nc3cc(N4CCCCC4)c(F)cc3[nH]2)c1C (stereo not shown) [Example 68, 2-[[(4-Methoxy-3-methyl)pyridin-2-yl]metlhylsulfinyl]-6-fluoro-5-(piperidin-1-yl)-1H-benzimidazole, sodium salt] |  | % Inhibition at 10 mg/kg (gastric acid secretion): 100%
Cc1c(N2CCCCC2)ccnc1C[S+]([O-])c1nc2cc(N3CCCCC3)c(F)cc2[nH]1 (stereo not shown) [Example 69] | 97 | 
COc1ccnc(C[S+]([O-])c2nc3cc(N4CCN(C(=O)OC(C)(C)C)CC4)c(F)cc3[nH]2)c1C (stereo not shown) [Example 73, 2-[[(4-Methoxy-3methyl)pyridin-2-yl]methylsulfinyl]-6-fluoro-5-(4-t-butyloxycarbonylpiperazin-1-yl)-1H-benzimidazole] | 93 | 
COc1ccnc(C[S+]([O-])c2nc3cc(N4CCCCCC4)c(F)cc3[nH]2)c1C (stereo not shown) [Example 80, 2-[[(4-Methoxy-3-methyl)pyridin-2-yl]methylsulfinyl]-6-fluoro-5-(hexamethyleneimin-1-yl)-1H-benzimidazole] | 100 | 
COc1ccnc(C[S+]([O-])c2nc3cc(N4CCCCCC4)c(F)cc3[nH]2)c1C (stereo not shown) [Example 81, 2-[[(4-Methoxy-3-methyl)pyridin-2-yl]methylsulfinyl]-6-fluoro-5-(hexamethyleneimin-1-yl)-1H-benzimidazole, sodium salt] |  | % Inhibition at 10 mg/kg (gastric acid secretion): 100%
Cc1c(N2CCOCC2)ccnc1C[S+]([O-])c1nc2cc(N3CCCCCC3)c(F)cc2[nH]1 (stereo not shown) [Example 82, 2-[[(4-(Morpholin-1-yl)-3-methyl)pyridin-2-yl]methylsulfinyl]-6-fluoro-5-(hexamethyleneimin-1-yl)-1H-benzimidazole] | 100 | 
COc1ccnc(C[S+]([O-])c2nc3cc(N4CCCC4)c(F)cc3[nH]2)c1C (stereo not shown) [Example 84, 2-[[(4-Methoxy-3-methyl)pyridin-2-yl]methylsulfinyl]-6-fluoro-5-(pyrrolidin-1-yl)-1H-benzimidazole] | 93 | 
COc1ccnc(C[S+]([O-])c2nc3cc(N4CCOCC4)ccc3[nH]2)c1C (stereo not shown) [Example 87, 2-[[(4-Methoxy-3-methyl)pyridin-2-yl]methylsulfinyl]-5-(morpholin-1-yl)-1H-benzimidazole] | 90 | 
COc1ccnc(C[S+]([O-])c2nc3cc(N4CCN(C(=O)OC(C)(C)C)CC4)ccc3[nH]2)c1C (stereo not shown) [Example 90, 2-[[(4-Methoxy-3-methyl)pyridin-2-yl]methylsulfinyl]-5-(4-t-butyloxycarbonylpiperazin-1-yl)-1H-benzimidazole] | 100 | 
COc1ccnc(C[S+]([O-])c2nc3cc(N4CCCCCC4)ccc3[nH]2)c1C (stereo not shown) [Example 91, 2-[[-(4-Methoxy-3-methyl)pyridin-2-yl]methylsulfinyl]-5-(hexamethyleneimin-1-yl)-1H-benzimidazole] | 97 | 
COc1ccc2[nH]c([S+]([O-])Cc3ncc(C)c(OC)c3C)nc2c1 (stereo not shown) [Omeprazole, 2-[[(4-methoxy-3,5-dimethyl)pyridin-2-yl]methylsulfinyl]-5-methoxy-1H-benzimidazole, reference compound] | 75 | IC50 (H^+ /K^+ - ATPase): 4.35 ± 0.56 µM; ED50 (gastric acid secretion): 4.96 ± 0.5 mg/kg
